Measurements reported in PubChem BioAssay (NCI).
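The compound was tested at five concentrations on cells cultured in 96-well plates, with a 48-hour exposure period. TGI denotes the concentration required for complete inhibition of growth.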

Legend:
Experiment in all cases: inhibition of tumour cell growth, NCI panel, 48 h
MOLT-4 leukemia = system: MOLT-4 leukemia
OVCAR-8 ovarian = system: OVCAR-8 ovarian
DU-145 prostate = system: DU-145 prostate
HT29 colon = system: HT29 colon
HCT-116 colon = system: HCT-116 colon
SN12C renal = system: SN12C renal
A498 renal = system: A498 renal
SK-MEL-2 melanoma = system: SK-MEL-2 melanoma
RXF 393 renal = system: RXF 393 renal
UACC-257 melanoma = system: UACC-257 melanoma

SMILES	TGI (MOLT-4 leukemia) [µM]	TGI (OVCAR-8 ovarian) [µM]	TGI (DU-145 prostate) [µM]	TGI (HT29 colon) [µM]	TGI (HCT-116 colon) [µM]	TGI (SN12C renal) [µM]	TGI (A498 renal) [µM]	TGI (SK-MEL-2 melanoma) [µM]	TGI (RXF 393 renal) [µM]	TGI (UACC-257 melanoma) [µM]
Nc1nc2c(C(=O)O)c3ccc([N+](=O)[O-])cc3c(=O)n2c2ccccc12	> 100	34.8	49.4	> 100	42.8	58.1	> 100	79.1	45.6	
Nc1ccc(Nc2cc(=O)[nH]c(=O)[nH]2)cc1Cl	> 100	> 100	> 100	> 100	> 100	> 100	> 100	> 100		> 100
O=C1N[C@@H]2C(=C[C@H](O)[C@@H](O)[C@H]2O)c2cc3c(c(O)c21)OCO3	0.296	0.0613		0.172	0.0569	0.122	0.106	0.0499		0.088
CC1CC(C#N)=C2NCCN2C1=O (centres undefined)	> 100	> 100	> 100	> 100		> 100		> 100	> 100	> 100
COc1cc(Oc2nc3ccc(C(F)(F)F)cc3nc2-c2ccccc2)cc(OC)c1OC		> 100	> 100	> 100	31.4	> 100	> 100		45.7	> 100
O=NN(CCF)C(=O)NC1CCSCC1	> 100	> 100		> 100	> 100	> 100	> 100	> 100	> 100	> 100
C=C(C)[C@@H]1CC[C@]2(C(=O)OC)CC[C@]3(C)[C@H](CC[C@@H]4[C@@]5(C)CC[C@H](O)C(C)(C)[C@@H]5CC[C@]43C)[C@@H]12	44.6	51.2	> 100	60	37.4	35.1	36.7		38.9	38.3
O=c1[nH]c2nc3ccccc3c(=O)n2/c1=C/c1ccco1	> 100	> 100	> 100	> 100	> 100	> 100		> 100		> 100
CC[C@@]1(O)C(=O)OCc2c1cc1n(c2=O)Cc2c-1nc1ccccc1c2/C=N\NC(=O)C(N)CCSC (some centres undefined)		4.36	> 100		1.58	0.925	0.359	4.2		2.45
Cn1c(=O)n2n(c1=O)C(C)(C13CC4CC(CC(C4)C1)C3)C13CC4CC(CC1C4)CC23 (centres undefined)	> 100	> 100	> 100	> 100		> 100	> 100	> 100		> 100
O=C1Cc2c([nH]c3ccc(C(=O)O)cc23)-c2ccccc2N1	> 100	> 100	> 100	> 100	> 100	> 100	> 100	> 100		> 100
O=C(c1ccco1)N(C(=O)N1CCN(c2ccccc2)CC1)S(=O)(=O)c1ccccc1	49.1	> 100	> 100	> 100	44	61.9	> 100	37.2		> 100
COC(=O)C1CCC(=O)N1C(c1ccc2c(c1)OCO2)c1cc(OC)c(OC)c(OC)c1 (centres undefined)	> 100	> 100	> 100	> 100	> 100	> 100	> 100	> 100		> 100
O=C(c1ccccc1)c1c(CC(O)c2ccncc2)n(C(=O)c2ccccc2)c2ccccc12 (centres undefined)	42.1	> 100		33.2	29.2			31		32.9
COC(=O)Cc1c(-c2c(CC(=O)OC)c3ccccc3n2C2OC(COC(C)=O)C(OC(C)=O)C(OC(C)=O)C2OC(C)=O)[nH]c2ccccc12 (centres undefined)	> 100		> 100	> 100	> 100	> 100	> 100	> 100		> 100
COc1ccc(NC(=O)C(=O)/C=C(\O)c2ccccc2)cc1	4.18	> 10	> 10	> 10		> 10			> 10	> 10
COc1ccc(C2=NOC(N)(c3ccc(OC)cc3)C2)cc1 (centres undefined)	> 100	> 100	> 100	> 100	> 100	> 100	> 100	> 100		> 100
C=C1CC[C@@H](C)[C@](C)(CCc2ccoc2)C/C=C\C=C/1C(=O)O	95.8	48.8		> 100	54.6	> 100	> 100	43.8	90.8	> 100
